Where a SMILES comes first, the peptide text is derived from it. Bridges are numbered along the chain shown (N, C = ends). [ ]: non-standard residue; d: D form.
Legend:
[1] = test system: gastric HCl secretion induced by the C-terminal tetrapeptide of gastrin; assay: in vivo inhibition of gastric acid secretion in dogs with chronic fistula and Heidenhain pouch; design: species or system dog
Description: D-Val^1 -somatostatin was tested in dogs for its in vivo inhibition of gastric acid secretion. In six dogs with chronic fistula and Heidenhain pouch, gastric HCl secretion was induced by infusion of the C-terminal tetrapeptide of gastrin at 0.5 μg/kg-hr. Each dog served as its own control, receiving on a separate day only the tetrapeptide. On another day, the six dogs received the tetrapeptide, and, after one hour of steady state secretion of HCl, D-Val^1 -somatostatin was infused at 0.75 μg/kg-hr. for one hour. Collection of gastric acid samples was continued for an additional 1.5 hours at 15 minute intervals. The samples were titrated to pH 7 with an automatic titrator. The maximal inhibitory effect of the D-Val^1 -somatostatin was extrapolated against the dose-response curve of somatostatin, and the relative potency of the analog to that of somatostatin is expressed as percent activity. D-Val^1 -somatostatin inhibited steady state acid secretion induced by the C-terminal tetrapeptide of gastrin by 85.1 ± 6.0% standard error of mean. This effect is equivalent to that of 0.935 μg/kg-hr. of somatostatin. Its activity relative to that of somatostatin thus is 125%.

[2] = test system: gut motility (pylorus, duodenum, antrum pressure); assay: action on gut motility in conscious dogs (intralumenal pressure); type: in vivo, dog; conditions: three conscious dogs; intravenous infusion over ten minutes
Description: D-Val^1 -somatostatin also was tested for its action on gut motility in conscious dogs. Three dogs having intralumenal catheters placed in the antrum, duodenum, and pylorus were used. Pressure changes in the gut lumen were recorded on a Visicorder using strain gauges and miniature light beam galvanometers. After a steady state control was established, D-Val^1 -somatostatin was infused intravenously over a ten minute period. […] The minimum effective dose required to increase the pyloric pressure and to decrease the duodenum and antrum pressures was <0.125 μg./kg.-10 minutes. This compares to an activity for somatostatin itself of 0.125 to 0.25 μg./kg.-10 minutes.

[3] = test system: secretion from the pancreas induced by secretin and cholecystokinin; assay: inhibition of pancreatic secretion in dogs with pancreatic and total gastric fistula; type: in vivo, dog; conditions: three dogs; 0.75 μg/kg-hr. for one hour
Description: In three dogs having both pancreatic and total gastric fistula, secretion from the pancreas was induced by infusion of secretin at 2 units/kg-hr. and cholecystokinin at 0.45 unit/kg-hr., and secretion of gastric HCl by infusion of tetragastrin at 0.5 μg/kg-hr. After a steady response was established, each dog received D-Val^1 -somatostatin for one hour at 0.75 μg/kg-hr. The peak inhibitory effect expressed as percent change over control for total protein was -51%

growth hormone secretion = assay: inhibition of pentobarbital-stimulated growth hormone release in rats; type: in vivo, rat; conditions: serum GH 20 minutes after dosing
Description: D-Val^1 -somatostatin also was tested for its activity with respect to the release of growth hormone. The procedure which was employed is carried out using normal male SpragueDawley rats weighing 100-120 grams (Laboratory Supply Company, Indianapolis, Indiana). The test is a modification of the method of P. Brazeau, W. Vale, and R. Guilleman, Endocrinology, 94 184 (1974). In this assay, five groups of eight rats each were employed. Sodium pentobarbital was administered intraperitoneally to all of the rats to stimulate growth hormone secretion. One group served as the control and received only saline. Two of the groups received somatostatin, one at 2 μg./rat, subcutaneously, and the other at 50 μg./rat, subcutaneously. The other two groups received D-Val^1 -somatostatin, one at 2 μg./rat, subcutaneously, and the other at 50 μg./rat, subcutaneously. The serum concentration of growth hormone was measured 20 minutes after simultaneous administration of sodium pentobarbital and test compound. The degree of inhibition of serum growth hormone concentration then was determined with respect to the control group, and the relative activities of D-Val^1 -somatostatin and somatostatin itself were compared.

CC(C)[C@@H](N)C(=O)NCC(=O)N[C@H]1CSSC[C@@H](C(=O)O)NC(=O)[C@H](CO)NC(=O)[C@H]([C@@H](C)O)NC(=O)[C@H](Cc2ccccc2)NC(=O)[C@H]([C@@H](C)O)NC(=O)[C@H](CCCCN)NC(=O)[C@H](Cc2c[nH]c3ccccc23)NC(=O)[C@H](Cc2ccccc2)NC(=O)[C@H](Cc2ccccc2)NC(=O)[C@H](CC(N)=O)NC(=O)[C@H](CCCCN)NC1=O [D-Val^1 -somatostatin] (H-[dV]GCKNFFWKTFTSC-OH; disulfide 3-14)
equivalent dose of somatostatin giving the same effect ([1]; extrapolated against the dose-response curve of somatostatin, analog at 0.75 μg/kg-hr.): 0.935 μg/kg-hr.
activity relative to that of somatostatin ([1]; gastric acid secretion, dogs): 125%
inhibition of steady state acid secretion induced by the C-terminal tetrapeptide of gastrin ([1]; six dogs, infused at 0.75 μg/kg-hr. for one hour, maximal inhibitory effect, ± standard error of mean): 85.1 ± 6.0%
effect on intralumenal pressure [2]: initially increased the intralumenal pressure in the pylorus and then decreased it whereas the pressure in the duodenum and the antrum remained depressed throughout the test
minimum effective dose required to increase the pyloric pressure and to decrease the duodenum and antrum pressures [2]: < 0.125 μg./kg.-10 minutes
peak inhibitory effect expressed as percent change over control for total protein [3]: -51%
inhibition of the increase in growth hormone secretion over control (growth hormone secretion; 2 μg./rat subcutaneously): 2%
inhibition of the increase in growth hormone secretion over control (growth hormone secretion; 50 μg./rat subcutaneously): 73%
